Test results from patent US7332506B2, “Substituted-3-indolyl-4-piperidino-alkyl heterocycles for the treatment of depression” (Wyeth, priority 2002, dated 2008).
Read-outs that look alike come from different tables or passages of the source.

Experiments:
5-HT transporter = molecular target: T1, 5-HT transporter (Rattus norvegicus, UniProt P31652); assay: Rat Brain 3H-Paroxetine Binding Assay (RB 5HT Transporter)
T1 construct: from tissue; host or cells: rat frontal cortex membranes (male Sprague-Dawley rats)
T1 sequence (P31652 whole entry): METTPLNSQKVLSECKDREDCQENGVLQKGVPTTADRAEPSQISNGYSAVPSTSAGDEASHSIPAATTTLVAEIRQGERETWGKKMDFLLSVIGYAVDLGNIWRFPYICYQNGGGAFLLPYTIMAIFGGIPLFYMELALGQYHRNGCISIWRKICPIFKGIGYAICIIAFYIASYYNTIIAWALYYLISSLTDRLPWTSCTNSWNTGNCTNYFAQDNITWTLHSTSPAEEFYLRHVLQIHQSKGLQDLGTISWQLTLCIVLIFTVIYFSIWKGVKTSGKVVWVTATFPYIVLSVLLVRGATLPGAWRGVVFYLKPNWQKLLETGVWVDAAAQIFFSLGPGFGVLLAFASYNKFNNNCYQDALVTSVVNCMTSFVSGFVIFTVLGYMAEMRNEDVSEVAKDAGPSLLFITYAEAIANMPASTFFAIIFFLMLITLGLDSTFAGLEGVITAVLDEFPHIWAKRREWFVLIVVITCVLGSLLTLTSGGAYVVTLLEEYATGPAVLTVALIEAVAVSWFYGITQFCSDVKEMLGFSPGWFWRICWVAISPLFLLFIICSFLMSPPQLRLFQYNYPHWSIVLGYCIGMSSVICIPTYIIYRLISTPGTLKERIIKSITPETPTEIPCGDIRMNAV
Procedure: Rat Brain ^3H-Paroxetine Binding Assay (RB 5HT Transporter):
This assay was used to determine a compound's affinity of the 5-HT transporter.
A protocol similar to that used by Cheetham et. al. (Neuropharmacol. 1993, 32, 737) was used. Briefly, frontal cortical membranes prepared from male S.D. rats were incubated with ^3H-parxetine (0.1 nM) for 60 min. at 25° C. All tubes also contained either vehicle, test compound (one to eight concentrations), or a saturating concentration of fluoxetine (10 μM) to define […]. All reactions are terminated by the addition of ice cold Tris buffer followed by rapid filtration using a Tom Tech filtration device to separate bound from free ^3H-paroxetine. Bound radioactivity was quantitated using a Wallac 1205 Beta Plate® counter. Nonlinear regression analysis was used to determine IC50 values which were converted to Ki values using the method of Cheng and Prusoff (Biochem. Pharmacol. 1973, 22, 3099);

human 5-HT1A receptors = molecular target: T2, human 5-HT1A receptors (Homo sapiens, UniProt P08908); assay: [3H] 8-OH-DPAT displacement from the 5-HT1A serotonin receptor (CHO cells); format: binding; details: for inhibition at 1 µM: @ 1000 nM, printed in the 5-HT1A Ki column
T2 construct: expressed in transfected cells; host or cells: CHO cells
T2 sequence (P08908 1-422): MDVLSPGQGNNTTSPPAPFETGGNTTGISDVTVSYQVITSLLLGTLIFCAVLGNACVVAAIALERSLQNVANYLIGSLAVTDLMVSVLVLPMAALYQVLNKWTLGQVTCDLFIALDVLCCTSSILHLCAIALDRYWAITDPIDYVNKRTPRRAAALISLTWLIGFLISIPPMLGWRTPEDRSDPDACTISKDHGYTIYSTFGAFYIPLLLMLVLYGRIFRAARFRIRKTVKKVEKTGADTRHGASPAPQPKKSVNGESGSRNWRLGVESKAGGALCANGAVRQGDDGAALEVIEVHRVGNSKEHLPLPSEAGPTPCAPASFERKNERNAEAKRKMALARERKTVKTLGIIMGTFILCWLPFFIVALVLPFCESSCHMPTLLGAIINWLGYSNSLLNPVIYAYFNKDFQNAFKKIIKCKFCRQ
Description: High affinity for the serotonin 5-HT1A receptor was established by testing the claimed compound's ability to displace [^3H] 8-OH-DPAT (dipropylaminotetralin) from the 5-HT1A serotonin receptor following a modification of the procedure of Hall et al., J. Neurochem. 44, 1685 (1985) which utilizes CHO cells stably transfected with human 5-HT1A receptors.

Human 5-HT Transporter = molecular target: T3, Human 5-HT Transporter (Homo sapiens, UniProt P31645); assay: Inhibition of 3H-5-HT Uptake by cells Possessing the Human 5-HT Transporter (HC 5HT Transporter); format: cell-based
T3 construct: endogenous in cells; host or cells: Jar cells (human carcinoma), treated with staurosporine
T3 sequence (P31645 whole entry): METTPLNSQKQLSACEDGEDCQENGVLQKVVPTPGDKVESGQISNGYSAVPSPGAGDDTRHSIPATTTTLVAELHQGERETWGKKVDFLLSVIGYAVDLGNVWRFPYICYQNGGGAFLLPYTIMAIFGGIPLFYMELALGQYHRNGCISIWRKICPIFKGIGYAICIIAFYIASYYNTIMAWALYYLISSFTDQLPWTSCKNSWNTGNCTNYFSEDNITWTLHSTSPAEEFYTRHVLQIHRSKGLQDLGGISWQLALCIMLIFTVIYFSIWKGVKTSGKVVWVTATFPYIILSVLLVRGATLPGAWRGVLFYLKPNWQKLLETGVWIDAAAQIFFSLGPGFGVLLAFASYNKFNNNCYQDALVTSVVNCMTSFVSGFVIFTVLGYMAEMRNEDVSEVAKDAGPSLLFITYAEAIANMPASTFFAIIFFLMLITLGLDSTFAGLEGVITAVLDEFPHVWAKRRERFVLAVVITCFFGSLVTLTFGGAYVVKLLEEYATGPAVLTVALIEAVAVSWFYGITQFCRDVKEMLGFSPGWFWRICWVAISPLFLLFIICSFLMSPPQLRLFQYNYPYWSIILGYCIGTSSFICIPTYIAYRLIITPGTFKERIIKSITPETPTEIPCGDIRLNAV
Procedure: [Staurosporine greatly increases the expression of the 5-HT-transporter.] On the day of assay, vehicle, excess of fluoxetine, or test compound is added to various wells on the plate. All wells then receive ^3H-5-HT and are incubated at 37° C. for 5 min. The wells are then washed with ice cold 50 mM Tris HCl (pH 7.4) buffer and aspirated to remove free ^3H-5-HT. 25 μl of 0.25 M NaOH is then added to each well to lyse the cells and 75 μl scintillation cocktail (Microscint™ 20) added prior to quantitation on a Packard TopCount machine. Tubes with vehicle represent total possible uptake, radioactivity counted in tubes with fluoxetine represent nonspecific binding/uptake and is subtracted from the total possible uptake to give total possible specific uptake. This nonspecific binding (usual low in number) is then subtracted from the counts obtained in wells with various test compounds (or different concentrations of test drug) to give specific uptake in the presence of drug. Specific uptake is then expressed as a % of control values and is analyzed using nonlinear regression analysis (Prizm) to determine IC50 values. If the compound is active at inhibiting 5-HT uptake, its counts will be close to that obtained with fluoxetine.

[1] = rat frontal cortical membranes, 3H-paroxetine, read-out: RB 5HT Transporter Ki
[2] = [3H] 8-OH-DPAT displacement, CHO cells with human 5-HT1A receptors, read-out: 5-HT1A Ki
[3] = Jar cells, 3H-5-HT uptake, read-out: HC 5HT Transporter IC50

Compound	Ki (5-HT transporter; [1]) [nM]	IC50 (Human 5-HT Transporter; [3]) [nM]	melting point [°C]	Ki (human 5-HT1A receptors; [2]) [nM]	Ki (5-HT transporter) [nM]	inhibition at 1 µM (human 5-HT1A receptors) [%]	further results
COc1cc2ncn(CCCN3CC=C(c4c[nH]c5ccc(F)cc45)CC3)c(=O)c2cc1OC [Example 8, 3-[3-(4-(5-fluoro-1H-indol-3-yl)-3,6-dihydro-1(2H)-pyridinyl)propyl]-6-7-dimethoxy-4(3H)-quinazolinone]			120		1.92	31	
O=c1c2cc(F)ccc2ncn1CCN1CC=C(c2c[nH]c3ccccc23)CC1 [Example 15, 6-fluoro-3-{2-[4-(1H-indol-3-yl)-3,6-dihydro-1(2H)-pyridinyl]ethyl}-4(3H)-quinazolinone]		159	138		19	44	
O=c1n(CCCCN2CC=C(c3c[nH]c4ccccc34)CC2)nc2ccccn12			123.2				
COc1cc2ncn(CCN3CC=C(c4c[nH]c5ccccc45)CC3)c(=O)c2cc1OC [Example 1, 3-[2-(4-(1H-indol-3-yl)-3,6-dihydro-1(2H)-pyridinyl)ethyl]-6-7-dimethoxy-4(3H)-quinazolinone]		125	219		2.87		Ki (human 5-HT1A receptors): 83.8 nM
O=c1c2cc(Cl)ccc2ncn1CCCN1CC=C(c2c[nH]c3ccccc23)CC1 [Example 10, 6-chloro-3-[3-(4-(1H-indol-3-yl)-3,6-dihydro-1(2H)-pyridinyl)propyl]-4(3H)-quinazolinone]		268			1.14	7	
O=c1c2ccccc2nnn1CCCN1CC=C(c2c[nH]c3ccccc23)CC1 [Example 19, 3-[3-(4-(1H-indol-3-yl)-3,6-dihydro-1(2H)-pyridinyl)propyl]-1,2,3-benzotriazin-4(3H)-one]				315	0.15		IC50 (Human 5-HT Transporter): 15.7 nM
COc1cc2ncn(CCCN3CC=C(c4c[nH]c5ccccc45)CC3)c(=O)c2cc1OC [Example 6, 3-[3-(4-(1H-indol-3-yl)-3,6-dihydro-1(2H)-pyridinyl)propyl]-6-7-dimethoxy-4(3H)-quinazolinone]				286	0.8		IC50 (Human 5-HT Transporter): 43.2 nM
O=c1c2ccccc2ncn1CCN1CC=C(c2c[nH]c3ccccc23)CC1 [Example 12, 3-[2-(4-(1H-indol-3-yl)-3,6-dihydro-1(2H)-pyridinyl)ethyl]-4(3H)-quinazolinone]	5.5	88.1		38.2			
O=c1c2cc(Cl)cc(Br)c2ncn1CCCN1CC=C(c2c[nH]c3ccccc23)CC1 [Example 9, 8-bromo-6-chloro-3-[3-(4-(1H-indol-3-yl)-3,6-dihydro-1(2H)-pyridinyl)propyl]-4(3H)-quinazolinone]			192		0.31	4	
O=c1n(CCCN2CC=C(c3c[nH]c4ccccc34)CC2)nc2ccccn12			173.3				
COc1cc2ncn(CCN3CC=C(c4c[nH]c5ccc(F)cc45)CC3)c(=O)c2cc1OC [Example 3, 3-[2-(4-(5-fluoro-1H-indol-3-yl)-3,6-dihydro-1(2H)-pyridinyl)ethyl]-6-7-dimethoxy-4(3H)-quinazolinone]	4.57		210	82.2			
Cn1cc(C2=CCN(CCCn3nnc4ccccc4c3=O)CC2)c2ccccc21 [Example 21, 3-[3-(4-(1-methyl-1H-indol-3-yl)-3,6-dihydro-1(2H)-pyridinyl)propyl]-1,2,3-benzotriazin-4(3H)-one]			70	631	0.56		
COc1cc2ncn(CCCCN3CC=C(c4c[nH]c5ccccc45)CC3)c(=O)c2cc1OC [Example 4, 3-[4-(4-(1H-indol-3-yl)-3,6-dihydro-1(2H)-pyridinyl)butyl]-6-7-dimethoxy-4(3H)-quinazolinone]		132		215	1.25		
O=c1c2ccccc2nnn1CCN1CC=C(c2c[nH]c3ccccc23)CC1 [Example 16, 3-[2-(4-(1H-indol-3-yl)-3,6-dihydro-1(2H)-pyridinyl)ethyl]-1,2,3-benzotriazin-4(3H)-one]	3.52	37.5		56.7			

Now from value to compound, other results behind:

Ki (5-HT transporter; [1]) [nM]	IC50 (Human 5-HT Transporter; [3]) [nM]	melting point [°C]	Compound	Ki (human 5-HT1A receptors; [2]) [nM]	Ki (5-HT transporter) [nM]	inhibition at 1 µM (human 5-HT1A receptors) [%]	further results
16	190		O=c1c2ccccc2nnn1CCN1CCC(c2c[nH]c3ccccc23)CC1 [Example 17, 3-{2-[4-(1H-indol-3-yl)-1-piperidinyl)ethyl}-1,2,3-benzotriazin-4(3H)-one]	119			
10			O=c1c2ccccc2nnn1CCCN1CCC(c2c[nH]c3ccccc23)CC1 [Example 20, 3-{3-[4-(1H-indol-3-yl)-1-piperidin]propyl}-1,2,3-benzotriazin-4(3H)-one]			49	
21	231		Cn1cc(C2CCN(CCn3nnc4ccccc4c3=O)CC2)c2ccccc21 [Example 18, 3-{2-[4-(1-methyl-1H-indol-3-yl)-1-piperidinyl]ethyl}-1,2,3-benzotriazin-4(3H)-one]	80.9			
37	651		O=c1c2ccccc2ncn1CCN1CCC(c2c[nH]c3ccccc23)CC1 [Example 13, 3-{2-[4-(1H-indol-3-yl)-1-piperidinyl]ethyl}-4(3H)-quinazolinone]			42	
4.12	55.3		COc1cc2ncn(CCCCN3CCC(c4c[nH]c5ccccc45)CC3)c(=O)c2cc1OC [Example 5, 3-{4-[4-(1H-indol-3-yl)-1-piperdinyl]butyl}-6,7-dimethoxy-4(3H)-quinazolinone]	86.8			
11	173		COc1cc2ncn(CCCN3CCC(c4c[nH]c5ccccc45)CC3)c(=O)c2cc1OC [Example 7, 3-{3-(4-(1H-indol-3-yl)-1-piperidinyl]propyl}-6-7-dimethoxy-4(3H)-quinazolinone]	201			
116	1480	78	Cn1cc(C2CCN(CCn3cnc4ccccc4c3=O)CC2)c2ccccc21 [Example 14, 3-{2-[4-(1-methyl-1H-indol-3-yl)-1-piperidinyl]ethyl}4-(3H)-quinazolinone]			43	
40	1910		O=c1c2cc(Cl)ccc2ncn1CCCN1CCC(c2c[nH]c3ccccc23)CC1 [Example 11, 6-chloro-3-{3-[4-(1H-indol-3-yl)-1-piperidinyl]propyl}-4(3H)-quinazolinone]			26	
		111.7	O=c1n(CCCN2CCC(c3c[nH]c4ccccc34)CC2)nc2ccccn12 [Example 23, 2-{3-[4-(1H-Indol-3-yl)-piperidin-1-yl]-propyl}-2H-[1,2,4]triazolo[4,3-a]pyridin-3-one]				
		142	O=c1n(CCN2CCC(c3c[nH]c4ccccc34)CC2)nc2ccccn12 [Example 25, 2-{2-[4-(1H-Indol-3-yl)-piperidin-1-yl]-ethyl}-2H-[1,2,4]triazolo[4,3-a]pyridin-3-one]				
		170.4	O=c1n(CCN2CC=C(c3c[nH]c4ccccc34)CC2)nc2ccccn12				
36	273	230	COc1cc2ncn(CCN3CCC(c4c[nH]c5ccccc45)CC3)c(=O)c2cc1OC [Example 2, 3-{2-[4-(1H-indol-3-yl)-1-piperidinyl]ethyl}-6-7-dimethoxy-4(3H)-quinazolinone]	72.1			
